Molecular target: cloned human NR1/NR2B ion channels (Homo sapiens (Human), UniProt Q05586+Q13224)
Experiment: HNR2BC: effects of test articles on cloned human NR1/NR2B ion channels expressed in mammalian cells (FLIPR calcium flux)
Format: cell-based
Settings: cloned human NR1/NR2B ion channels, Table 5
Summary of the method: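 Compounds were added to dye-loaded cells for 5 min with fluorescence monitored for agonism, followed by co-agonists (glutamate ~EC80, glycine 10 μM saturating) for 5 min. Cells stably expressed inducible human NR1/NR2B, and the buffer was pH 7.4. The FLIPR Ca2+ flux signal was normalized against control wells.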

cloned human NR1/NR2B ion channels, sequence (Q13224 27-1484, other chains not shown): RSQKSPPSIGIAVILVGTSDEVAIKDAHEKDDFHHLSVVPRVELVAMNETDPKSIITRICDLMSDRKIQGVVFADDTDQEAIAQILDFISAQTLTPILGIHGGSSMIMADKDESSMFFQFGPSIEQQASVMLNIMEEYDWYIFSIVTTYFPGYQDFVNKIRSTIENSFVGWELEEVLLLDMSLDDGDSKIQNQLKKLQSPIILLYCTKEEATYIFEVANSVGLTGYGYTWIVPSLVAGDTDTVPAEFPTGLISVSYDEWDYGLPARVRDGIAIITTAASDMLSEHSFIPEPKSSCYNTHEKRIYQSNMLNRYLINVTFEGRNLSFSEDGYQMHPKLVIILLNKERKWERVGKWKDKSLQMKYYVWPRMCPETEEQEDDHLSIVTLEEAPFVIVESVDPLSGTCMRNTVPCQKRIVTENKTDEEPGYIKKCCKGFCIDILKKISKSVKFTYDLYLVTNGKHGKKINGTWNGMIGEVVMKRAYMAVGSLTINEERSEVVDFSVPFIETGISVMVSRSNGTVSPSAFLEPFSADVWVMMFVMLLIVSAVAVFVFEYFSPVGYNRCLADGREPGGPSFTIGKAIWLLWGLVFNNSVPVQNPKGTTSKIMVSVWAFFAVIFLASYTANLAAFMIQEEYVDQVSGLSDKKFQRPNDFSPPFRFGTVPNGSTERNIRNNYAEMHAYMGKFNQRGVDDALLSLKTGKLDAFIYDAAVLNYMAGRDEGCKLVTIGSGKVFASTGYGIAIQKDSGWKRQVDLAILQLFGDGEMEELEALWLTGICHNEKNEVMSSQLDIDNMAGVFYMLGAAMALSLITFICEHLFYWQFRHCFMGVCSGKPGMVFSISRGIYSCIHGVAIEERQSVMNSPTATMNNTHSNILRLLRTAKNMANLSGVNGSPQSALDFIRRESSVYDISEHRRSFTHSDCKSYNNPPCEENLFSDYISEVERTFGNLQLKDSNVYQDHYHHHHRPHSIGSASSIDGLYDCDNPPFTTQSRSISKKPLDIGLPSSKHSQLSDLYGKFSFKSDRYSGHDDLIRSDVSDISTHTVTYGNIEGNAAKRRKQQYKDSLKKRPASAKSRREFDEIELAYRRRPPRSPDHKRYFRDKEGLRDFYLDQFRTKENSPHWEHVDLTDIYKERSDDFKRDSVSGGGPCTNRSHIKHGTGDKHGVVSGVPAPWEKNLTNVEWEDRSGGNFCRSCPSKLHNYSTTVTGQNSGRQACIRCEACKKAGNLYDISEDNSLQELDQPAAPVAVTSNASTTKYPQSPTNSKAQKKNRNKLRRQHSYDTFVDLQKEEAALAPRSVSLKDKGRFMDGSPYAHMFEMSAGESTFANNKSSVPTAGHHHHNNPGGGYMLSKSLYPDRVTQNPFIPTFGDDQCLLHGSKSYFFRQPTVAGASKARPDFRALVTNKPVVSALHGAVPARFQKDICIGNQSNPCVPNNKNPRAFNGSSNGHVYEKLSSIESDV

| Structure (SMILES) | IC50 [nM] |
| --- | --- |
| FC(F)(F)c1cccc(-c2cnc3ccn(Cc4cccnn4)c3c2)c1 [Example 613, 1-(Pyridazin-3-ylmethyl)-6-[3-(trifluoromethyl)phenyl]pyrrolo[3,2-b]pyridine] | 2510 |
| Cc1cn(CC(=O)N2CC(F)(F)C2)c2cc(-c3ccc(F)c(F)c3)cnc12 [Example 621, 1-(3,3-Difluoroazetidin-1-yl)-2-[6-(3,4-difluorophenyl)-3-methyl-pyrrolo[3,2-b]pyridin-1-yl]ethanone] | 631 |
| Cc1c(F)ccc(-c2cnc3c(C)cn(CC(=O)N(C)C)c3c2)c1F [Example 622, 2-[6-(2,4-Difluoro-3-methyl-phenyl)-3-methyl-pyrrolo[3,2-b]pyridin-1-yl]-N,N-dimethyl-acetamide] | 100 |
| Cc1c(F)ccc(-c2cnc3c(C)cn(CC(=O)N4CCCC4)c3c2)c1F [Example 624, 2-[6-(2,4-Difluoro-3-methyl-phenyl)-3-methyl-pyrrolo[3,2-b]pyridin-1-yl]-1-pyrrolidin-1-yl-ethanone] | 79.4 |
| CCN(C)C(=O)Cn1cc(C)c2ncc(-c3ccc(F)c(C)c3F)cc21 [Example 625, 2-[6-(2,4-Difluoro-3-methyl-phenyl)-3-methyl-pyrrolo[3,2-b]pyridin-1-yl]-N-ethyl-N-methyl-acetamide] | 100 |
| Cc1c(F)ccc(-c2cnc3c(C)cn(CC(=O)N4CC(F)(F)C4)c3c2)c1F [Example 626, 1-(3,3-Difluoroazetidin-1-yl)-2-[6-(2,4-difluoro-3-methyl-phenyl)-3-methyl-pyrrolo[3,2-b]pyridin-1-yl]ethanone] | 631 |
| Cc1c(F)ccc(-c2cnc3c(C)cn(CC(=O)N4CCC4)c3c2)c1F [Example 627, 1-(Azetidin-1-yl)-2-[6-(2,4-difluoro-3-methyl-phenyl)-3-methyl-pyrrolo[3,2-b]pyridin-1-yl]ethanone] | 158 |
| Cc1cn(CC(=O)N(C)C)c2cc(-c3ccc(Cl)s3)cnc12 [Example 628, 2-[6-(5-Chloro-2-thienyl)-3-methyl-pyrrolo[3,2-b]pyridin-1-yl]-N,N-dimethyl-acetamide] | 100 |
| CCN(C)C(=O)Cn1cc(C)c2ncc(-c3ccc(C)s3)cc21 [Example 630, N-Ethyl-N-methyl-2-[3-methyl-6-(5-methyl-2-thienyl)pyrrolo[3,2-b]pyridin-1-yl]acetamide] | 251 |
| Cc1ccc(-c2cnc3c(C)cn(CC(=O)N4CCCC4)c3c2)s1 [Example 631, 2-[3-Methyl-6-(5-methyl-2-thienyl)pyrrolo[3,2-b]pyridin-1-yl]-1-pyrrolidin-1-yl-ethanone] | 158 |
| Cc1ccc(-c2cnc3c(C)cn(CC(=O)N4CC(F)(F)C4)c3c2)s1 [Example 632, 1-(3,3-Difluoroazetidin-1-yl)-2-[3-methyl-6-(5-methyl-2-thienyl)pyrrolo[3,2-b]pyridin-1-yl]ethanone] | 200 |
| Cc1ccc(-c2cnc3c(C)cn(CC(=O)N4CC(F)C4)c3c2)s1 [Example 634, 1-(3-Fluoroazetidin-1-yl)-2-[3-methyl-6-(5-methyl-2-thienyl)pyrrolo[3,2-b]pyridin-1-yl]ethanone] | 631 |
| Cc1cn(CC(=O)N2CC(F)C2)c2cc(-c3cc(F)cc(F)c3)cnc12 [Example 635, 2-[6-(3,5-Difluorophenyl)-3-methyl-pyrrolo[3,2-b]pyridin-1-yl]-1-(3-fluoroazetidin-1-yl)ethanone] | 316 |
| Cc1cn(CC(=O)N2CC(F)C2)c2cc(-c3ccc(Cl)s3)cnc12 [Example 636, 2-[6-(5-Chloro-2-thienyl)-3-methyl-pyrrolo[3,2-b]pyridin-1-yl]-1-(3-fluoroazetidin-1-yl)ethanone] | 158 |
| Cc1ccc(-c2cnc3c(C)cn(CC(=O)N(C)C)c3c2)s1 [Example 637, N,N-Dimethyl-2-[3-methyl-6-(5-methyl-2-thienyl)pyrrolo[3,2-b]pyridin-1-yl]acetamide] | 316 |
| Cc1cn(CC(=O)N2CC(F)C2)c2cc(-c3ccccc3F)cnc12 [Example 638, 1-(3-Fluoroazetidin-1-yl)-2-[6-(2-fluorophenyl)-3-methyl-pyrrolo[3,2-b]pyridin-1-yl]ethanone] | 126 |
| CN(C)C(=O)Cn1ccc2ncc(-c3ccc(C(F)F)s3)cc21 [Example 639, 2-[6-[5-(Difluoromethyl)-2-thienyl]pyrrolo[3,2-b]pyridin-1-yl]-N,N-dimethyl-acetamide] | 200 |

Stronger by IC50, values ahead:

| IC50 [nM] | Structure (SMILES) |
| --- | --- |
| 50.1 | CCN(C)C(=O)Cn1cc(C)c2ncc(-c3ccc(F)c(C)c3)cc21 [Example 617, N-Ethyl-2-[6-(4-fluoro-3-methyl-phenyl)-3-methyl-pyrrolo[3,2-b]pyridin-1-yl]-N-methyl-acetamide] |
| 50.1 | Cc1ccc(-c2cnc3c(C)cn(CC(=O)N4CCC4)c3c2)s1 [Example 633, 1-(Azetidin-1-yl)-2-[3-methyl-6-(5-methyl-2-thienyl)pyrrolo[3,2-b]pyridin-1-yl]ethanone] |
| 39.8 | Cc1cn(CC(=O)N2CCCC2)c2cc(-c3ccc(F)c(F)c3)cnc12 [Example 619, 2-[6-(3,4-Difluorophenyl)-3-methyl-pyrrolo[3,2-b]pyridin-1-yl]-1-pyrrolidin-1-yl-ethanone] |
| 39.8 | Cc1c(F)ccc(-c2cnc3c(C)cn(CC(=O)N4CC(F)C4)c3c2)c1F [Example 629, 2-[6-(2,4-Difluoro-3-methyl-phenyl)-3-methyl-pyrrolo[3,2-b]pyridin-1-yl]-1-(3-fluoroazetidin-1-yl)ethanone] |
| 31.6 | FC(F)(F)c1cccc(-c2cnc3c(Cl)cn(Cc4cccnc4)c3c2)c1 [Example 612, 3-Chloro-1-(3-pyridylmethyl)-6-[3-(trifluoromethyl)phenyl]pyrrolo[3,2-b]pyridine] |
| 31.6 | Cc1cc(-c2cnc3c(Cl)cn(Cc4cccnn4)c3c2)ccc1F [Example 614, 3-Chloro-6-(4-fluoro-3-methyl-phenyl)-1-(pyridazin-3-ylmethyl)pyrrolo[3,2-b]pyridine] |
| 31.6 | Cc1cc(-c2cnc3c(C)cn(CC(=O)N4CCCC4)c3c2)ccc1F [Example 616, 2-[6-(4-Fluoro-3-methyl-phenyl)-3-methyl-pyrrolo[3,2-b]pyridin-1-yl]-1-pyrrolidin-1-yl-ethanone] |
| 31.6 | Cc1cc(-c2cnc3c(C)cn(CC(=O)N4CC(F)(F)C4)c3c2)ccc1F [Example 618, 1-(3,3-Difluoroazetidin-1-yl)-2-[6-(4-fluoro-3-methyl-phenyl)-3-methyl-pyrrolo[3,2-b]pyridin-1-yl]ethanone] |
| 25.1 | FC(F)(F)c1cccc(-c2cnc3c(Cl)cn(Cc4cccnn4)c3c2)c1 [Example 615, 3-Chloro-1-(pyridazin-3-ylmethyl)-6-[3-(trifluoromethyl)phenyl]pyrrolo[3,2-b]pyridine] |
| 25.1 | CCN(C)C(=O)Cn1cc(C)c2ncc(-c3ccc(F)c(F)c3)cc21 [Example 620, 2-[6-(3,4-Difluorophenyl)-3-methyl-pyrrolo[3,2-b]pyridin-1-yl]-N-ethyl-N-methyl-acetamide] |
| 15.8 | Cc1cn(CC(=O)N2CCCC2)c2cc(-c3cc(F)cc(F)c3)cnc12 [Example 623, 2-[6-(3,5-Difluorophenyl)-3-methyl-pyrrolo[3,2-b]pyridin-1-yl]-1-pyrrolidin-1-yl-ethanone] |

Reference: patent US10377753B2, “Substituted 4-azaindoles and their use as GluN2B receptor modulators” (Janssen Pharmaceutica NV, priority 2015, dated 2019)
